Data on eight compounds can be found in patent US20250135006A1, “AMPHIPHILIC TLR7/8 ADJUVANTS AND USES THEREOF” (Pfizer Inc., priority 2023, published 2025).

Assay [1] concerns the target T1, human toll like receptor 7 (hTLR7) (Homo sapiens, UniProt Q9NYK1).
T1 construct: host or cells: HEK293 (HEK-Blue hTLR7)
T1 sequence (Q9NYK1 27-1049): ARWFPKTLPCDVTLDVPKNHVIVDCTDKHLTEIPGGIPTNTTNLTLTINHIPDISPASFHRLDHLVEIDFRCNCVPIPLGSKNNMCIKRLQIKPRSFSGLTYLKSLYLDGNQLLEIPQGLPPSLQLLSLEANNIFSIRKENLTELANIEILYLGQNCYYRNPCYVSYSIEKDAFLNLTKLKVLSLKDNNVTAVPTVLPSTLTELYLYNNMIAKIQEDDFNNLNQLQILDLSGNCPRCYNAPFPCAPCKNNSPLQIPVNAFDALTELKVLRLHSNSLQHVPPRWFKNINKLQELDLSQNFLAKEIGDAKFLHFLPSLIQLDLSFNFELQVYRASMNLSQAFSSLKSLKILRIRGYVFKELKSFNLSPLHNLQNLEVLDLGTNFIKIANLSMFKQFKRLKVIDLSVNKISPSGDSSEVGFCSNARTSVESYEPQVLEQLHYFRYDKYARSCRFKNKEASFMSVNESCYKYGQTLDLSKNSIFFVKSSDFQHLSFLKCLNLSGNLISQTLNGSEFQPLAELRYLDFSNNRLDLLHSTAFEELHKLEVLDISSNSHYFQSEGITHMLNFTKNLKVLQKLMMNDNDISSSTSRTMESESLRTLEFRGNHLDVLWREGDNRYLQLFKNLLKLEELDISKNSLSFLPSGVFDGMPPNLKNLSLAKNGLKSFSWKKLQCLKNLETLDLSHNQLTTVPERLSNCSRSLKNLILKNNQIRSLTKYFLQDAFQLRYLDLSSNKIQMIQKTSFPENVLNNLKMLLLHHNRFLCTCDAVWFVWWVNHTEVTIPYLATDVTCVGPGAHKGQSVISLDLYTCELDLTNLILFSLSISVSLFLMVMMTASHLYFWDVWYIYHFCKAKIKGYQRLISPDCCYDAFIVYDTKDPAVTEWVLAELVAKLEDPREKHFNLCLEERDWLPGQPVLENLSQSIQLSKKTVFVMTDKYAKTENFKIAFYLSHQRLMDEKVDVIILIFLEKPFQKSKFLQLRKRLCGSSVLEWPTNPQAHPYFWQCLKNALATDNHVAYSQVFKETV
As to the kind of experiment: hTLR7 in-vitro functional assay (HEK-Blue hTLR7 SEAP reporter). To be noted: HEK-Blue hTLR7 cells, overnight incubation. The format is cell-based.

In assay [2] the target is T2, human toll like receptor 8 (hTLR8) (Homo sapiens, UniProt Q9NR97).
T2 construct: host or cells: HEK293 (HEK-Blue hTLR8)
T2 sequence (Q9NR97 27-1041): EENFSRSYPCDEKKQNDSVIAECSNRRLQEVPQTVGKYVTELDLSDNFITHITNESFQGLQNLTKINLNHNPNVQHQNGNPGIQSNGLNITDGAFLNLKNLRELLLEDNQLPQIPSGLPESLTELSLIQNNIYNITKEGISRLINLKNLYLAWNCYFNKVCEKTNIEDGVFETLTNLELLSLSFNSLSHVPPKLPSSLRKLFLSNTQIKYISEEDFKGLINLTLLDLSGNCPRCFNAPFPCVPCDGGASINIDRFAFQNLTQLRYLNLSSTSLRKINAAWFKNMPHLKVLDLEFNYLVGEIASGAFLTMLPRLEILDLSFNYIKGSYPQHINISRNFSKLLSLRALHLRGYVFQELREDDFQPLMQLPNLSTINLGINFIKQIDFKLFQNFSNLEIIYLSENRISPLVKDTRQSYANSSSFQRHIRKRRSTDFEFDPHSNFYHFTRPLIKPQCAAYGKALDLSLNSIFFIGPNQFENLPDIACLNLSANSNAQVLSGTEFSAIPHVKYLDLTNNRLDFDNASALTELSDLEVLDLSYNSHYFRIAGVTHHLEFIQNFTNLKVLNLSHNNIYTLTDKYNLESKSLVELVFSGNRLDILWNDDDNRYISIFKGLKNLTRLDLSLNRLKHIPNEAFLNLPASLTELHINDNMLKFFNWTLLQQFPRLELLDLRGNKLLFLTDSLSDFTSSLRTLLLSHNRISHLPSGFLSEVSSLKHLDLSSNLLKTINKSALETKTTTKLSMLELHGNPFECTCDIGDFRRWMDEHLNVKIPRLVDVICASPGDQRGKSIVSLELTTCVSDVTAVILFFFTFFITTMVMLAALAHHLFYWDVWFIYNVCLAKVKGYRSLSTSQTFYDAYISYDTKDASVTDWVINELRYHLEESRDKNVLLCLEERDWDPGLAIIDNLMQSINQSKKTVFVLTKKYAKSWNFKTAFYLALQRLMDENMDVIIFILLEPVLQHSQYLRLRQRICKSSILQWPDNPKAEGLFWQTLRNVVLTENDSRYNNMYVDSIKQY
As to the kind of experiment: hTLR8 in-vitro functional assay (HEK-Blue hTLR8 SEAP reporter). To be noted: HEK-Blue hTLR8 cells, overnight incubation. It is filed as cell-based.

For orientation: EC50 means the concentration at which the effect is half-maximal. A high value points to a less potent agent. Turning to `CCCCc1nc2c(N)nc3cc(CCCN4CCN(CCCOCCOCCNC(=O)O[C@H]5CC[C@@]6(C)C(=CC[C@H]7[C@@H]8CC[C@H]([C@H](C)CCCC(C)C)[C@@]8(C)CC[C@@H]76)C5)CC4)ccc3c2n1CC(C)(CO)CO` [Compound 18, (20R)-cholest-5-en-3beta-yl [2-(2-{3-[4-(3-{4-amino-2-butyl-1-[3-hydroxy-2-(hydroxymethyl)-2-methylpropyl]-1H-imidazo[4,5-c]quinolin-7-yl}propyl)piperazin-1-yl]propoxy}ethoxy)ethyl]carbamate], the EC50 is 288 nM in assay [1] and 9900 nM in assay [2].

On to `CCCCc1nc2c(N)nc3cc(CCCN4CCN(C(=O)CCOCCOCCOCCOCCOCCOCCOCCOCCOCCOCCOCCOCCOCCOCCOCCOCCOCCOCCOCCOCCOCCOCCOCCOCCNC(=O)CCOCCOCCOCCOCCOCCOCCOCCOCCOCCOCCOCCOCCOCCOCCOCCOCCOCCOCCOCCOCCOCCOCCOCCOCCNC(=O)O[C@H]5CC[C@@]6(C)C(=CC[C@H]7[C@@H]8CC[C@H]([C@H](C)CCCC(C)C)[C@@]8(C)CC[C@@H]76)C5)CC4)ccc3c2n1CC(C)(CO)CO` [Compound 8, (3beta,20R)-cholest-5-en-3-yl {151-[4-(3-{4-amino-2-butyl-1-[3-hydroxy-2-(hydroxymethyl)-2-methylpropyl]-1H-imidazo[4,5-c]quinolin-7-yl}propyl)piperazin-1-yl]-75,151-dioxo-3,6,9,12,15,18,21,24,27,30,33,36,39,42,45,48,51,54,57,60,63,66,69,72,79,82,85,88,91,94,97,100,103,106,109,112,115,118,121,124,127,130,133,136,139,142,145,148-octatetracontaoxa-76-azahenpentacontahect-1-yl}carbamate], for which the results for the EC50 in assay [1] and in assay [2] were 150 nM and 731 nM, respectively.

Turning to `CCCCc1nc2c(N)nc3cc(CCCN4CCN(C(=O)CCOCCOCCOCCOCCOCCOCCOCCOCCOCCOCCOCCOCCOCCOCCOCCOCCOCCOCCOCCOCCOCCOCCOCCOCCNC(=O)O[C@H]5CC[C@@]6(C)C(=CC[C@H]7[C@@H]8CC[C@H]([C@H](C)CCCC(C)C)[C@@]8(C)CC[C@@H]76)C5)CC4)ccc3c2n1CC(C)(CO)CO` [Compound 9, (3beta)-cholest-5-en-3-yl {75-[4-(3-{4-amino-2-butyl-1-[3-hydroxy-2-(hydroxymethyl)-2-methylpropyl]-1H-imidazo[4,5-c]quinolin-7-yl}propyl)piperazin-1-yl]-75-oxo-3,6,9,12,15,18,21,24,27,30,33,36,39,42,45,48,51,54,57,60,63,66,69,72-tetracosaoxapentaheptacont-1-yl}carbamate], the figures for the EC50 in assay [1] and in assay [2] were 181 nM and 16000 nM, respectively.

Consider `CCCCc1nc2c(N)nc3cc(CCCN4CCN(CCCOCCOCCOCCOCCOCCOCCOCCOCCOCCOCCOCCOCCOCCOCCOCCOCCOCCOCCOCCOCCOCCOCCOCCOCCNC(=O)CCOCCOCCOCCOCCNC(=O)CCCOc5c(C)c(C)c6c(c5C)CC[C@@](C)(CCC[C@H](C)CCC[C@H](C)CCCC(C)C)O6)CC4)ccc3c2n1CC(C)(CO)CO` [Compound 26, N-{75-[4-(3-{4-amino-2-butyl-1-[3-hydroxy-2-(hydroxymethyl)-2-methylpropyl]-1H-imidazo[4,5-c]quinolin-7-yl}propyl)piperazin-1-yl]-3,6,9,12,15,18,21,24,27,30,33,36,39,42,45,48,51,54,57,60,63,66,69,72-tetracosaoxapentaheptacontan-1-yl}-17-oxo-20-({(2R)-2,5,7,8-tetramethyl-2-[(4R,8R)-4,8,12-trimethyltridecyl]-3,4-dihydro-2H-1-benzopyran-6-yl}oxy)-4,7,10,13-tetraoxa-16-azaicosan-1-amide], for which the EC50 in assay [1] was 404 nM; in assay [2], above 25000 nM.

In the case of `CCCCc1nc2c(N)nc3cc(CCCN4CCN(C(=O)CCOCCOCCOCCOCCOCCOCCOCCOCCOCCOCCOCCOCCOCCOCCOCCOCCOCCOCCOCCOCCOCCOCCOCCOCCOCCOCCOCCOCCOCCOCCOCCOCCOCCOCCOCCOCCNC(=O)CCOCCOCCOCCOCCNC(=O)CCCOc5c(C)c(C)c6c(c5C)CC[C@@](C)(CCC[C@H](C)CCC[C@H](C)CCCC(C)C)O6)CC4)ccc3c2n1CC(C)(CO)CO` [Compound 24], the values for the EC50 in assay [1] and in assay [2] were 134 nM and 2380 nM, respectively.

Turning to `CCCCc1nc2c(N)nc3cc(CCCN4CCN(C(=O)CCOCCOCCOCCOCCOCCOCCOCCOCCOCCOCCOCCOCCNC(=O)CCOCCOCCOCCOCCNC(=O)CCCOc5c(C)c(C)c6c(c5C)CC[C@@](C)(CCC[C@H](C)CCC[C@H](C)CCCC(C)C)O6)CC4)ccc3c2n1CC(C)(CO)CO` [Compound 25, N-{39-[4-(3-{4-amino-2-butyl-1-[3-hydroxy-2-(hydroxymethyl)-2-methylpropyl]-1H-imidazo[4,5-c]quinolin-7-yl}propyl)piperazin-1-yl]-39-oxo-3,6,9,12,15,18,21,24,27,30,33,36-dodecaoxanonatriacontan-1-yl}-17-oxo-20-({(2R)-2,5,7,8-tetramethyl-2-[(4R,8R)-4,8,12-trimethyltridecyl]-3,4-dihydro-2H-1-benzopyran-6-yl}oxy)-4,7,10,13-tetraoxa-16-azaicosan-1-amide], the concentration giving a half-maximal response (EC50) was determined as 312 nM in assay [1] and 8280 nM in assay [2].

On to `CCOCc1nc2c(N)nc3cc(CCCN4CCN(C(=O)CCOCCOCCOCCOCCOCCOCCOCCOCCOCCOCCOCCOCCNC(=O)CCOCCOCCOCCOCCNC(=O)O[C@H]5CC[C@@]6(C)C(=CC[C@H]7[C@@H]8CC[C@H]([C@H](C)CCCC(C)C)[C@@]8(C)CC[C@@H]76)C5)CC4)ccc3c2n1CC(C)(CO)CO` [Compound 13, (3beta,20R)-cholest-5-en-3-yl {55-[4-(3-{4-amino-2-(ethoxymethyl)-1-[3-hydroxy-2-(hydroxymethyl)-2-methylpropyl]-1H-imidazo[4,5-c]quinolin-7-yl}propyl)piperazin-1-yl]-15,55-dioxo-3,6,9,12,19,22,25,28,31,34,37,40,43,46,49,52-hexadecaoxa-16-azapentapentacont-1-yl}carbamate], for which the EC50 came to 223 nM in assay [1] and 3330 nM in assay [2].

Turning to `CCCCc1nc2c(N)nc3cc(CCCN4CCN(CCCOCCNC(=O)O[C@H]5CC[C@@]6(C)C(=CC[C@H]7[C@@H]8CC[C@H]([C@H](C)CCCC(C)C)[C@@]8(C)CC[C@@H]76)C5)CC4)ccc3c2n1CC(C)(CO)CO` [Compound 10, (3beta,20R)-cholest-5-en-3-yl (2-{3-[4-(3-{4-amino-2-butyl-1-[3-hydroxy-2-(hydroxymethyl)-2-methylpropyl]-1H-imidazo[4,5-c]quinolin-7-yl}propyl)piperazin-1-yl]propoxy}ethyl)carbamate], the EC50 in assay [1] was found to be 186 nM; in assay [2] it was 9910 nM.
